Data published in patent US6706715B2, “Urea derivatives with antiproteolytic activity” (Aventis Pharma Deutschland GmbH, priority 2001, dated 2004).

Target: T1, factor VIIa/tissue factor (Homo sapiens, UniProt P08709)
T1 construct: human factor VIIa and TF
Test: Factor VIIa (FVIIa) chromogenic assay
Type: biochemical
Conditions: human factor VIIa 5 nM and TF 10 nM; chromogenic substrate S-2288 500 μM; 25° C.; 15 minute preincubation; pH 8.15
Protocol: The ability of the compounds of the formula I to inhibit factor VIIa or other enzymes like factor Xa, thrombin, plasmin, or trypsin can be assessed by determining the concentration of the compound of the formula I that inhibits enzyme activity by 50%, i.e. the IC50 value, which is related to the inhibition constant Ki. Purified enzymes are used in chromogenic assays. The concentration of inhibitor that causes a 50% decrease in the rate of substrate hydrolysis is determined by linear regression after plotting the relative rates of hydrolysis (compared to the uninhibited control) versus the log of the concentration of the compound of formula I. For calculating the inhibition constant Ki, the IC50 value is corrected for competition with substrate using the formula
Ki=IC50/{1+(substrate concentration/Km)}
wherein Km is the Michaelis-Menten constant (Chen and Prusoff, Biochem. Pharmacol. 22 (1973), 3099-3108; I. H. Segal, Enzyme Kinetics, 1975, John Wiley & Sons, New York, 100-125; which are incorporated herein by reference).
a) Factor VIIa (FVIIa) Assay
The inhibitory activity (expressed as inhibition constant Ki(FVIIa)) of the compounds of formula I towards factor VIIa/tissue factor activity was determined using a chromogenic assay essentially as described previously (J. A. Ostrem et al., Biochemistry 37 (1998) 1053-1059 which is incorporated herein by reference). Kinetic assays were conducted at 25° C. in half-area microtiter plates (Costar Corp., Cambridge, Mass.) using a kinetic plate reader (Molecular Devices Spectramax 250). A typical assay consisted of 25 μl human factor VIIa and TF (5 nM and 10 nM, respective final concentration) combined with 40 μl of inhibitor dilutions in 10% DMSO/TBS-PEG buffer (50 mM Tris, 15 mM NaCl, 5 mM CaCl2, 0.05% PEG 8000, pH 8.15). Following a 15 minute preincubation period, the assay was initiated by the addition of 35 μl of the chromogenic substrate S-2288 (D-Ile-Pro-Arg-p-nitroanilide, Pharmacia Hepar Inc., 500 μM final concentration).

T1 sequence (P08709 213-466 limits assumed): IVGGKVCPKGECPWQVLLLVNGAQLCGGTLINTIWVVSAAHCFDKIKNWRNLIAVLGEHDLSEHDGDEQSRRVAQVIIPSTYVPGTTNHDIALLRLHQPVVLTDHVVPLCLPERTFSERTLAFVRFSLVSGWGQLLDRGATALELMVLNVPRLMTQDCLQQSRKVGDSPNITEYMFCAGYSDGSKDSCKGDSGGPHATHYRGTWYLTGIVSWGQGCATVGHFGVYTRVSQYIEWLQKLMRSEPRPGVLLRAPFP
T1 sequence (P08709 61-212 limits assumed): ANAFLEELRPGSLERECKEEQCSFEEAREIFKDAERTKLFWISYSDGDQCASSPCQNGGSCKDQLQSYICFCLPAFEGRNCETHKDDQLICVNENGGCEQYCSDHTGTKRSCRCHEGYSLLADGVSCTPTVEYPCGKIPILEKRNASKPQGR
T1 sequence (P13726 33-295 partner): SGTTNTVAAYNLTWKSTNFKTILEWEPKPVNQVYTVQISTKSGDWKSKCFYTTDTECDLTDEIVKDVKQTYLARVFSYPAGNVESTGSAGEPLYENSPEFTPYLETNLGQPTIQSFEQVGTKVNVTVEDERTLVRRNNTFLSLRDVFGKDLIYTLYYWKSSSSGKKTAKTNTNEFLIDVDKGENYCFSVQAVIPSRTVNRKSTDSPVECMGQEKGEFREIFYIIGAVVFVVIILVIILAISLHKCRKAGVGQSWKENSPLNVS

Ki	Compound
700 nM	CC(Nc1ccccc1NC(=O)Nc1ccc(C(=N)N)cc1)c1ccccc1 (stereo not drawn) [Example 2, 4-{3-[2-(1-Phenyl-ethylamino)-phenyl]-ureido}-benzamidin]
188 nM	CC(Nc1ccccc1NC(=O)Nc1ccc(C(=N)N)cc1)c1ccc(C(=O)N2CCOCC2)cc1 (stereo not drawn) [Example 5, 4-[3-(2-{1-[4-(morpholine-4-carbonyl)-phenyl]-ethylamino}-phenyl)-ureido]-benzamidine acetate]
103 nM	C[C@@H](Nc1ccccc1NC(=O)Nc1ccc(C(=N)N)cc1)c1ccccc1 [Example 15]
44400 nM	CC(Nc1ccccc1CNC(=O)Nc1ccc(C(=N)N)cc1)c1cccc(C(F)(F)F)c1 (stereo not drawn) [Example 18]
51 nM	CC(Nc1ccccc1NC(=O)Nc1ccc(C(=N)N)cc1)c1ccc(C(=O)Nc2cccc(S(C)(=O)=O)c2)cc1 (stereo not drawn) [Example 19]
98 nM	CC(Nc1ccccc1NC(=O)Nc1ccc(C(=N)N)cc1)c1ccc(C(=O)NCc2ccc(S(C)(=O)=O)cc2)cc1 (stereo not drawn) [Example 24]
282 nM	CC(Nc1ccccc1NC(=O)Nc1ccc(C(=N)N)cc1)c1ccc(C(=O)Nc2csc(-c3ccccc3)c2)cc1 (stereo not drawn) [Example 30]
56 nM	CC(Nc1ccccc1NC(=O)Nc1ccc(C(=N)N)cc1)c1ccc(C(=O)NC2CCCCC2)cc1 (stereo not drawn) [Example 37]
935 nM	CC(Nc1ccccc1NC(=O)Nc1ccc(C(=N)N)cc1)c1ccc(C(=O)Nc2ccc(C(F)(F)F)cc2)cc1 (stereo not drawn) [Example 39]
